# Measured values: ChEMBL document CHEMBL3108718, “Replacement of the Disulfide Bridge in a KLK3-Stimulating Peptide Using Orthogonally Protected Building Blocks” (ACS Med Chem Lett, 2014)
# Bridge positions count the residues as written; N and C are the ends. Square brackets hold non-standard residues; d marks the D form. Peptide text beside a SMILES is read from it. Asu = N[C@@H](CCCCCC(=O)O)C(=O)O; AllylGly = C=CC[C@H](N)C(=O)O; GABA = NCCCC(=O)O
# Target: T1, Prostate-specific antigen (Homo sapiens) (UniProt P07288)
# T1 sequence (whole entry): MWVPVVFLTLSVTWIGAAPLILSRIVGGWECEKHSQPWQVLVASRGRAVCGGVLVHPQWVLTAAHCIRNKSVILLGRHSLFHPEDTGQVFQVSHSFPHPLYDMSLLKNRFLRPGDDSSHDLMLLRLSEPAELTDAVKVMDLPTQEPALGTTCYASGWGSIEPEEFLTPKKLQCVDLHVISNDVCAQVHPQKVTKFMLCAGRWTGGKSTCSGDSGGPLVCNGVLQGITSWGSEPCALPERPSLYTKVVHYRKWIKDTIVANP
# Assay: Stimulation of KLK3 (unknown origin) relative to control
row,Compound,Activity
1,CC(C)C[C@@H]1NC(=O)[C@H](Cc2ccc(O)cc2)NC(=O)[C@H](CC(=O)O)NC(=O)[C@H](Cc2ccc(O)cc2)NC(=O)[C@H](CC(N)=O)NC(=O)[C@H](Cc2cnc[nH]2)NC(=O)[C@H](C)NC(=O)[C@H](Cc2ccccc2)NC(=O)[C@H](C(C)C)NC(=O)CCCNC(=O)[C@H](CC(=O)O)NC(=O)[C@H](C(C)C)NC1=O (cyclo(AHNYDYLVD[GABA]VF)),250%

# Target: T1, Prostate-specific antigen (Homo sapiens)
# Assay: Stimulation of KLK3 (unknown origin) using S-2586 as substrate at 14 uM after 30 mins by spectrophotometric assay relative to control
row,Compound,Activity
1,CC(C)C[C@@H]1NC(=O)[C@H](Cc2ccc(O)cc2)NC(=O)[C@H](CC(=O)O)NC(=O)[C@H](Cc2ccc(O)cc2)NC(=O)[C@H](CC(N)=O)NC(=O)[C@H](Cc2cnc[nH]2)NC(=O)[C@H](C)NC(=O)[C@H](Cc2ccccc2)NC(=O)[C@H](C(C)C)NC(=O)[C@@H](N)CSSC[C@@H](C(N)=O)NC(=O)[C@H](C(C)C)NC1=O (H-CVFAHNYDYLVC-NH2; disulfide 1-12),360%
2,CC(C)C[C@@H]1NC(=O)[C@H](Cc2ccc(O)cc2)NC(=O)[C@H](CC(=O)O)NC(=O)[C@H](Cc2ccc(O)cc2)NC(=O)[C@H](CC(N)=O)NC(=O)[C@H](Cc2cnc[nH]2)NC(=O)[C@H](C)NC(=O)[C@H](Cc2ccccc2)NC(=O)[C@H](C(C)C)NC(=O)[C@@H](N)CCCC[C@@H](C(=O)O)NC(=O)[C@H](C(C)C)NC1=O,250%
3,CC(C)C[C@@H]1NC(=O)[C@H](Cc2ccc(O)cc2)NC(=O)[C@H](CC(=O)O)NC(=O)[C@H](Cc2ccc(O)cc2)NC(=O)[C@H](CC(N)=O)NC(=O)[C@H](Cc2cnc[nH]2)NC(=O)[C@H](C)NC(=O)[C@H](Cc2ccccc2)NC(=O)[C@H](C(C)C)NC(=O)[C@@H](N)C/C=C/C[C@@H](C(=O)O)NC(=O)[C@H](C(C)C)NC1=O (H-[AllylGly]VFAHNYDYLV[AllylGly]-OH; staple (E) 1-12),160%
4,CC(C)C[C@@H]1NC(=O)[C@H](Cc2ccc(O)cc2)NC(=O)[C@H](CC(=O)O)NC(=O)[C@H](Cc2ccc(O)cc2)NC(=O)[C@H](CC(N)=O)NC(=O)[C@H](Cc2cnc[nH]2)NC(=O)[C@H](C)NC(=O)[C@H](Cc2ccccc2)NC(=O)[C@H](C(C)C)NC(=O)CCCCC[C@@H](C(=O)O)NC(=O)[C@H](C(C)C)NC1=O (VFAHNYDYLV[Asu]-OH; lactam N-11),170%
5,CC(C)C[C@@H]1NC(=O)[C@H](Cc2ccc(O)cc2)NC(=O)[C@H](CC(=O)O)NC(=O)[C@H](Cc2ccc(O)cc2)NC(=O)[C@H](CC(N)=O)NC(=O)[C@H](Cc2cnc[nH]2)NC(=O)[C@H](C)NC(=O)[C@H](Cc2ccccc2)NC(=O)[C@H](C(C)C)NC(=O)CC/C=C/C[C@@H](C(=O)O)NC(=O)[C@H](C(C)C)NC1=O,160%
